Common to all, as to format: cell-based
Assay [1] deals with Candida albicans ATCC 37092. The source says:
(§1) Ten organisms obtained from the American Type Culture Collection (ATCC; Rockville, MD) were used for antimicrobial assays. Four Gram-negative bacteria included Escherichia coli ATCC 25922, Pseudomonas aeruginosa ATCC 27853, Klebsiella oxytoca ATCC 49131, and Proteus vulgaris ATCC 49132. The three Gram-positive bacteria were Staphylococcus aureus 29213, Micrococcus luteus ATCC 49,732, and Enterococcus faecalis ATCC 29212. The three fungi were Candida albicans ATCC 37092, Candida kefyr ATCC 37095, and Candida tropicalis ATCC 37097. The clinical isolates were obtained from Singapore General Hospital (SGH). They are Enterococcus faecium, Staphylococcus aureus, Klebsiella pneumoniae, Acinetobacter baumannii, Pseudomonas aeruginosa, and Enterobacter species. The strains were incubated in trypticase soy broth (TSB), which was prepared in double distilled water and autoclaved for sterilization. TSB was purchased from Becton-Dickinson (Cockeysville, MD, USA).
(§2) Antimicrobial Assays. A sensitive and reproducible two-stage radial diffusion antimicrobial assay of Lehrer et al. was employed. A 1–4 × 10^6 colony-forming unit/mL of the test organism was mixed with 10 mL of molten underlay gel solution and poured into Petri dishes to form a uniform layer. The gel solution consisted of 10 mM sodium phosphate buffer, 0.03% TSB, and 0.02% Tween-20, with the addition of 100 mM NaCl in the case of high-salt conditions. Upon gel solidification, gel wells were made by a 3-mm diameter template in an evenly spaced array. A 5 µL aliquot of a serial half-log dilution of test peptides at seven concentrations was added to each well after removal of gel plugs. The dishes were incubated at 37 °C for 3 h to allow peptide diffusion into the underlay gels. Gels were overlaid with 10 mL of 1% agarose in 6% TSB (wt/vol). After additional incubation at 37 °C for 16–24 h, the diameter of the clear zone surrounding the wells (colony-free) was measured under a microscope. Antimicrobial activities were expressed in units (0.1 mm = 1 unit), and the MICs (in µM) were determined from the x-intercepts of the dose-response curves. Experiments were performed in triplicates.

The subject of assay [2] is Micrococcus luteus ATCC 49,732.
Description: as §1, §2

For assay [3], the system named is Enterococcus faecalis ATCC 29212.
Description: as §1, §2

Assay [4] has as its system Klebsiella oxytoca ATCC 49131.
Description: as §1, §2

In assay [5] the test system is Staphylococcus aureus 29213.
Description: as §1, §2

Assay [6] concerns Pseudomonas aeruginosa ATCC 27853.
Description: as §1, §2

In assay [7] the test system is Escherichia coli ATCC 25922.
Description: as §1, §2

Assay [8] deals with Proteus vulgaris ATCC 49132.
Description: as §1, §2

Assay [9] deals with Candida tropicalis ATCC 37097.
Description: as §1, §2

Another assay concerns Candida kefyr ATCC 37095.
Description: as §1, §2

Read-outs that look alike come from different tables or passages of the source. Residues, ends and D or L forms follow the SMILES beside them. Where only a bound is given, the exact number is not on record here.

On to `CC(=O)N[C@@H](CCCCNC(=O)[C@H](CCCNC(=N)N)NC(=O)[C@H](Cc1ccc(O)cc1)NC(=O)[C@H](CC(C)C)NC(=O)[C@@H](N)CCCNC(=N)N)C(=O)N[C@@H](CCCCNC(=O)[C@H](CCCNC(=N)N)NC(=O)[C@H](Cc1ccc(O)cc1)NC(=O)[C@H](CC(C)C)NC(=O)[C@@H](N)CCCNC(=N)N)C(=O)N[C@@H](CCCCNC(=O)[C@H](CCCNC(=N)N)NC(=O)[C@H](Cc1ccc(O)cc1)NC(=O)[C@H](CC(C)C)NC(=O)[C@@H](N)CCCNC(=N)N)C(N)=O` [K3R], for which, in assay [1] (ATCC 37092, 3 h), the “MIC, C. albicans, H-Salt” value is 0.7 µM and the “MIC, C. albicans, L-Salt” value worked out at 1.0 µM. Further, in [2] (ATCC 49, 3 h), the “MIC, M. luteus, H-Salt” value came out at 0.8 µM and the “MIC, M. luteus, L-Salt” value stood at 0.7 µM. Besides, in assay [3] (ATCC 29212, 3 h), the “MIC, E. faecalis, H-Salt” value was 1.3 µM and the “MIC, E. faecalis, L-Salt” value is listed as 1.0 µM. Further, in assay [4] (ATCC 49131, 3 h), the “MIC, K. oxytoca, H-Salt” value is reported as 0.8 µM and the “MIC, K. oxytoca, L-Salt” value is on record as 0.7 µM. Moreover, in assay [5] (29213, 3 h), the “MIC, S. aureus, H-Salt” value came to 0.6 µM and the “MIC, S. aureus, L-Salt” value worked out at 0.6 µM. Moreover, in [6] (ATCC 27853, 3 h), the “MIC, P. aeruginosa, H-Salt” value stood at 0.7 µM and the “MIC, P. aeruginosa, L-Salt” value is 0.9 µM. Also, in assay [7] (ATCC 25922, 3 h), the “MIC, E. coli, H-Salt” value is 0.8 µM and the “MIC, E. coli, L-Salt” value is 0.7 µM. In [8] (ATCC 49132, 3 h), the “MIC, P. vulgaris, H-Salt” value was 1.0 µM and the “MIC, P. vulgaris, L-Salt” value is 0.6 µM. Further, in assay [9] (ATCC 37097, 3 h), the “MIC, C. tropicalis, H-Salt” value is recorded as 0.6 µM and the “MIC, C. tropicalis, L-Salt” value is on record as 1.1 µM. In addition, in the assay on Candida kefyr ATCC 37095 (ATCC 37095, 3 h), the “MIC, C. kefyr, H-Salt” value stood at 0.7 µM and the “MIC, C. kefyr, L-Salt” value worked out at 0.8 µM.

For the molecule `CC(C)C[C@H](NC(=O)[C@@H](N)CCCNC(=N)N)C(=O)N[C@@H](Cc1ccc(O)cc1)C(=O)N[C@@H](CCCNC(=N)N)C(=O)NCCC[C@H](NC(=O)[C@H](CCCNC(=O)[C@H](CCCNC(=N)N)NC(=O)[C@H](Cc1ccc(O)cc1)NC(=O)[C@H](CC(C)C)NC(=O)[C@@H](N)CCCNC(=N)N)NC(=O)[C@H](CCCNC(=O)[C@H](CCCNC(=N)N)NC(=O)[C@H](Cc1ccc(O)cc1)NC(=O)[C@H](CC(C)C)NC(=O)[C@@H](N)CCCNC(=N)N)NC(=O)[C@H](CCCNC(=O)[C@H](CCCNC(=N)N)NC(=O)[C@H](Cc1ccc(O)cc1)NC(=O)[C@H](CC(C)C)NC(=O)[C@@H](N)CCCNC(=N)N)NC(=O)[C@H](CCCNC(=N)N)NC(=O)[C@H](Cc1ccc(O)cc1)NC(=O)[C@H](CC(C)C)NC(=O)[C@@H](N)CCCNC(=N)N)C(N)=O` [O5R] (HELM PEPTIDE1{R.L.Y.R.[Orn].[Orn].[Orn].[Orn].[am]}|PEPTIDE2{R.L.Y.R}|PEPTIDE3{R.L.Y.R}|PEPTIDE4{R.L.Y.R}|PEPTIDE5{R.L.Y.R}$PEPTIDE1,PEPTIDE2,8:R3-4:R2|PEPTIDE1,PEPTIDE3,7:R3-4:R2|PEPTIDE1,PEPTIDE4,6:R3-4:R2|PEPTIDE1,PEPTIDE5,5:R3-4:R2$$$V2.0; N-terminus assumed), in [1] (ATCC 37092, 3 h), the “MIC, C. albicans, H-Salt” value is reported as 1.5 µM and the “MIC, C. albicans, L-Salt” value is listed as 0.9 µM. Also, in [2] (ATCC 49, 3 h), the “MIC, M. luteus, H-Salt” value stood at 1.7 µM and the “MIC, M. luteus, L-Salt” value is recorded as 1.3 µM. In addition, in assay [3] (ATCC 29212, 3 h), the “MIC, E. faecalis, H-Salt” value is above 500 µM and the “MIC, E. faecalis, L-Salt” value is reported as 10.2 µM. In [4] (ATCC 49131, 3 h), the “MIC, K. oxytoca, H-Salt” value amounted to 2.4 µM and the “MIC, K. oxytoca, L-Salt” value was 1.8 µM. Moreover, in [5] (29213, 3 h), the “MIC, S. aureus, H-Salt” value is given as 6.5 µM and the “MIC, S. aureus, L-Salt” value amounted to 5.4 µM. Besides, in assay [6] (ATCC 27853, 3 h), the “MIC, P. aeruginosa, H-Salt” value is reported as 3.1 µM and the “MIC, P. aeruginosa, L-Salt” value turned out to be 2.0 µM. For the same molecule, in [7] (ATCC 25922, 3 h), the “MIC, E. coli, H-Salt” value is recorded as 2.3 µM and the “MIC, E. coli, L-Salt” value came to 0.9 µM. Besides, in [8] (ATCC 49132, 3 h), the “MIC, P. vulgaris, H-Salt” value was 19.2 µM and the “MIC, P. vulgaris, L-Salt” value was 8.1 µM. Further, in [9] (ATCC 37097, 3 h), the “MIC, C. tropicalis, H-Salt” value worked out at 0.7 µM and the “MIC, C. tropicalis, L-Salt” value came out at 1.1 µM. Moreover, in the assay on Candida kefyr ATCC 37095 (ATCC 37095, 3 h), the “MIC, C. kefyr, H-Salt” value is reported as 0.7 µM and the “MIC, C. kefyr, L-Salt” value stood at 0.7 µM.

`CC(=O)NCCC[C@H](NC(=O)[C@H](CCCNC(=N)N)NC(=O)[C@H](Cc1ccc(O)cc1)NC(=O)[C@H](CC(C)C)NC(=O)[C@@H](N)CCCNC(=N)N)C(=O)NCCC[C@H](NC(=O)[C@H](CCCNC(=N)N)NC(=O)[C@H](Cc1ccc(O)cc1)NC(=O)[C@H](CC(C)C)NC(=O)[C@@H](N)CCCNC(=N)N)C(=O)NCCC[C@H](NC(=O)[C@H](CCCNC(=N)N)NC(=O)[C@H](Cc1ccc(O)cc1)NC(=O)[C@H](CC(C)C)NC(=O)[C@@H](N)CCCNC(=N)N)C(=O)NCCC[C@H](NC(=O)[C@H](CCCNC(=N)N)NC(=O)[C@H](Cc1ccc(O)cc1)NC(=O)[C@H](CC(C)C)NC(=O)[C@@H](N)CCCNC(=N)N)C(N)=O` [iO4R] (HELM PEPTIDE1{R.L.Y.R.[Orn]}|PEPTIDE2{[ac]}|PEPTIDE3{R.L.Y.R.[Orn]}|PEPTIDE4{R.L.Y.R.[Orn]}|PEPTIDE5{R.L.Y.R.[Orn].[am]}$PEPTIDE1,PEPTIDE2,5:R3-1:R2|PEPTIDE1,PEPTIDE3,5:R2-5:R3|PEPTIDE3,PEPTIDE4,5:R2-5:R3|PEPTIDE4,PEPTIDE5,5:R2-5:R3$$$V2.0): the “MIC, C. albicans, H-Salt” value in [1] (ATCC 37092, radial diffusion assay, high-salt (100 mM NaCl), triplicates) is reported as 1.4 µM. For the same molecule, the “MIC, C. albicans, L-Salt” value in assay [1] (ATCC 37092, radial diffusion assay, low-salt (without NaCl), triplicates) turned out to be 1.3 µM. For the same molecule, in [2] (ATCC 49,732, radial diffusion assay, high-salt (100 mM NaCl), triplicates), the “MIC, M. luteus, H-Salt” value amounted to 2.0 µM. In addition, the “MIC, M. luteus, L-Salt” value in [2] (ATCC 49,732, radial diffusion assay, low-salt (without NaCl), triplicates) amounted to 2.1 µM. Moreover, the “MIC, E. faecalis, H-Salt” value in assay [3] (ATCC 29212, radial diffusion assay, high-salt (100 mM NaCl), triplicates) is above 500 µM. In addition, in [3] (ATCC 29212, radial diffusion assay, low-salt (without NaCl), triplicates), the “MIC, E. faecalis, L-Salt” value stood at 5.4 µM. Moreover, the “MIC, K. oxytoca, H-Salt” value in [4] (ATCC 49131, radial diffusion assay, high-salt (100 mM NaCl), triplicates) turned out to be 6.8 µM. In addition, the “MIC, K. oxytoca, L-Salt” value in [4] (ATCC 49131, radial diffusion assay, low-salt (without NaCl), triplicates) was 1.6 µM. The “MIC, S. aureus, H-Salt” value in assay [5] (strain 29213, radial diffusion assay, high-salt (100 mM NaCl), triplicates) was found to be 4.8 µM. Further, in assay [5] (strain 29213, radial diffusion assay, low-salt (without NaCl), triplicates), the “MIC, S. aureus, L-Salt” value stood at 6.7 µM. The “MIC, P. aeruginosa, H-Salt” value in assay [6] (ATCC 27853, radial diffusion assay, high-salt (100 mM NaCl), triplicates) is 4.0 µM. Also, the “MIC, P. aeruginosa, L-Salt” value in assay [6] (ATCC 27853, radial diffusion assay, low-salt (without NaCl), triplicates) stood at 4.4 µM. In addition, in [7] (ATCC 25922, two-stage radial diffusion assay, high-salt (underlay gel 10 mM sodium phosphate, 0.03% TSB, 0.02% Tween-20, with 100 mM NaCl), 37 °C, x-intercept of dose-response curve, triplicates), the “MIC, E. coli, H-Salt” value is listed as 4.4 µM. Besides, the “MIC, E. coli, L-Salt” value in assay [7] (ATCC 25922, two-stage radial diffusion assay, low-salt (underlay gel 10 mM sodium phosphate, 0.03% TSB, 0.02% Tween-20, without NaCl), 37 °C, x-intercept of dose-response curve, triplicates) was found to be 0.9 µM. In assay [8] (ATCC 49132, radial diffusion assay, high-salt (100 mM NaCl), triplicates), the “MIC, P. vulgaris, H-Salt” value is recorded as 23.2 µM. The “MIC, P. vulgaris, L-Salt” value in assay [8] (ATCC 49132, radial diffusion assay, low-salt (without NaCl), triplicates) is recorded as 4.7 µM. Moreover, the “MIC, C. tropicalis, H-Salt” value in assay [9] (ATCC 37097, radial diffusion assay, high-salt (100 mM NaCl), triplicates) was 0.8 µM. Besides, the “MIC, C. tropicalis, L-Salt” value in assay [9] (ATCC 37097, radial diffusion assay, low-salt (without NaCl), triplicates) worked out at 1.4 µM. In the assay on Candida kefyr ATCC 37095 (ATCC 37095, radial diffusion assay, high-salt (100 mM NaCl), triplicates), the “MIC, C. kefyr, H-Salt” value turned out to be 0.8 µM. Also, in the assay with Candida kefyr ATCC 37095 (ATCC 37095, radial diffusion assay, low-salt (without NaCl), triplicates), the “MIC, C. kefyr, L-Salt” value amounted to 0.8 µM.

The values above are taken from publication PMC10489980, “Design of Potent and Salt-Insensitive Antimicrobial Branched Peptides” (Polymers, 2023).
